# Results published in article PMC9525273 (Nature Communications, 2022).
# Values joined by “and” are separate entries in the source; they are usually repeats but may differ in a detail not shown here. Equal values may be shown once. Read-outs that look alike come from different tables or passages of the source.
# Tests used:
# Assay type in all cases: cell-based, Plasmodium falciparum
# [1] = system: Dd2-Polδ-PfATP4^G358S parasites; assay: P. falciparum proliferation assay (72 h, fluorescent DNA-intercalating dye); details: for IC50: Dd2-Polδ-PfATP4G358S parasites
# Description: (§1) For experiments with all other parasites, the effects of compounds of interest on parasite proliferation was measured in 96-well plates containing serial dilutions of the compounds in culture medium, with a fluorescent DNA-intercalating dye used to detect surviving parasites. The assays were initiated with erythrocytes infected with predominantly ring-stage parasites, and the starting parasitaemia and haematocrit were both 1%.
# [2] = system: Dd2-Polδ parasites; assay: as above; details: Dd2-Polδ parasites
# Description: as §1
# [3] = system: NF54^WT parasites; assay: microbe, parasite or virus in culture
# Description: (§2) For the NF54-based lines and Dd2-B2-PfATP4^G358S and its parent, assays were initiated with cultures containing predominantly ring-stage parasites with a parasitaemia of 0.3% and a haematocrit of 1%. All assays using NF54 were performed in culture media containing 10% O + human serum. The duration of the assays was 72 h and the concentration of DMSO was <0.5% (v/v). Serial dilutions of the test compounds were performed using a Tecan D300e digital dispenser, with parasite cultures added manually. Parasite survival was assessed by flow cytometry on an Intellicyt iQue3 (Essen Bioscience), with 1× SYBR Green I (Invitrogen) and 200 nM MitoTracker Deep Red FM (Invitrogen) used to stain the nucleus and the mitochondria in live parasites, respectively. The gating strategy used to quantify parasite survival, performed using FlowJo version 10 (FlowJo LLC.), is illustrated in Supplementary Fig. 9. IC50 and IC90 values were calculated by linear interpolation of the dose-response data.
# [4] = system: parasite lines with a G358S mutation in PfATP4; assay: P. falciparum proliferation assays, statements on all lines with the G358S mutation; details: G358S lines vs PfATP4 wild-type controls
# Description: as §2, with “Two types of parasite proliferation assays were employed in this study, with both yielding highly consistent results. For” for “For”
# as §1, with “1%. […] Fluorescence was measured using a FLUOstar OPTIMA plate reader (BMG LABTECH), with OPTIMA version 2.20R2 and MARS Data Analysis Software version 3.01 R2 (BMG LABTECH).” for “1%.”
# [5] = system: NF54^G358S-2 parasites; assay: P. falciparum proliferation assay (72 h, flow cytometry, SYBR Green I/MitoTracker)
# Description: as §2
# [6] = system: NF54^CTL parasites; assay: as above
# Description: as §2
# [7] = system: NF54^G358S-1 parasites; assay: as above; details: for FC (IC50) / FC (IC90): NF54G358S-1 compared to NF54WT
# Description: as §2
# [8] = individual experiments, read-out: IC50 values
# [9] = mean of the experiments, read-out: IC50 values, MEAN
# [10] = NF54WT parasites, individual experiments, read-out: IC50 values
# [11] = NF54WT parasites, individual experiments, read-out: IC90 values
# [12] = NF54G358S-2 parasites, individual experiments, read-out: IC50 values
# [13] = NF54G358S-2 parasites, individual experiments, read-out: IC90 values
# [14] = NF54CTL parasites, individual experiments, read-out: IC50 values
# [15] = NF54G358S-1 parasites, individual experiments, read-out: IC50 values
# [16] = NF54G358S-1 parasites, individual experiments, read-out: IC90 values
structure (smiles),measurement,setting,value
CCOC(=O)C1=CN(C)C=C(C(=O)OCC)C1c1cc(Br)c(OCC)c(OC)c1 [MMV006656],IC50,[1]; [8],1560 nM and 1990 nM and 1300 nM and 2350 nM
same,IC50,[1]; [9],1800 nM
same,IC50 fold higher than that of Dd2-Polδ parent,"[1]; Dd2-Polδ-PfATP4G358S vs Dd2-Polδ, mean ± SEM",5.7 ± 1.3 fold
same,IC50,[2]; [8],435 nM and 243 nM and 394 nM and 305 nM
same,IC50,[2]; [9],344 nM
CCNCc1cc(Nc2ccnc3cc(Cl)ccc23)ccc1O [Monodesethyl‐amodiaquine],IC50,[3]; [10],10.5 nM
same,IC90,[3]; [11],7.38 nM and 7.32 nM and 7.45 nM and 14.6 nM
same,IC50,"[3]; NF54WT parasites, mean of the experiments, read-out: IC50 values, MEAN",6.9 nM
same,IC90,"[3]; NF54WT parasites, mean of the experiments, read-out: IC90 values, MEAN",9.2 nM
same,FC (IC50),"[3]; NF54WT, reference line",1.0 fold
same,FC (IC90),"[3]; NF54WT, reference line",1.0 fold
same,FC (Mean IC90/IC50),"[3]; NF54WT, reference line",1.0 fold
same,IC50,[3]; read-out: IC50 values,5.7 nM
same,effect of the G358S mutation in PfATP4 on parasite susceptibility,[4],no effect
same,FC (IC50),[5]; NF54G358S-2 compared to NF54WT,1.0 fold
same,FC (IC90),[5]; NF54G358S-2 compared to NF54WT,1.3 fold
same,FC (Mean IC90/IC50),[5]; NF54G358S-2 compared to NF54WT,1.3 fold
same,IC50,[5]; [12],5.9 nM and 7.4 nM and 7 nM
same,IC90,[5]; [13],7.97 nM and 13.8 nM and 13.5 nM
same,IC50,"[5]; NF54G358S-2 parasites, mean of the experiments, read-out: IC50 values, MEAN",6.8 nM
same,IC90,"[5]; NF54G358S-2 parasites, mean of the experiments, read-out: IC90 values, MEAN",12.2 nM
same,FC (IC50),[6]; NF54CTL compared to NF54WT,1.0 fold
same,FC (IC90),[6]; NF54CTL compared to NF54WT,1.5 fold
same,FC (Mean IC90/IC50),[6]; NF54CTL compared to NF54WT,1.5 fold
same,IC50,[6]; [14],6.5 nM and 6.8 nM and 7.4 nM and 7.2 nM
same,IC50,"[6]; NF54CTL parasites, mean of the experiments, read-out: IC50 values, MEAN",7 nM
same,IC50,"[7]; NF54G358S-1, 10% human serum, read-out: IC50 ± SEM",7.6 ± 0.8 nM
same,FC (IC50),[7],1.1 fold
same,FC (IC90),[7],1.4 fold
same,IC50,[7]; [15],5.6 nM and 7.6 nM and 8.1 nM and 9.2 nM
same,IC90,[7]; [16],7.37 nM and 14 nM (2×) and 14.3 nM
same,IC50,"[7]; NF54G358S-1 parasites, mean of the experiments, read-out: IC50 values, MEAN",7.6 nM
same,IC90,"[7]; NF54G358S-1 parasites, mean of the experiments, read-out: IC90 values, MEAN",12.4 nM
Clc1ccc2c(N3CCN(CCCN4CCN(c5ccnc6cc(Cl)ccc56)CC4)CC3)ccnc2c1 [Piperaquine],IC50,[3]; [10],22 nM and 14.7 nM and 19.4 nM
same,IC90,[3]; [11],29.8 nM and 27.5 nM and 28.8 nM
same,FC (IC50),"[3]; NF54WT, reference line",1.0 fold
same,FC (IC90),"[3]; NF54WT, reference line",1.0 fold
same,IC50,"[3]; Plasmodium falciparum, NF54, NF54WT parasites, individual experiments, read-out: IC50 values",22.7 nM
same,IC90,"[3]; Plasmodium falciparum, NF54, NF54WT parasites, individual experiments, read-out: IC90 values",30 nM
same,IC50,"[3]; Plasmodium falciparum, NF54, NF54WT parasites, mean of the experiments, read-out: IC50 values, MEAN",19.7 nM
same,IC90,"[3]; Plasmodium falciparum, NF54, NF54WT parasites, mean of the experiments, read-out: IC90 values, MEAN",29 nM
same,effect of the G358S mutation in PfATP4 on parasite susceptibility,[4],no effect
same,FC (IC50),[5]; NF54G358S-2 compared to NF54WT,0.9 fold
same,FC (IC90),[5]; NF54G358S-2 compared to NF54WT,1.1 fold
same,IC50,[5]; [12],24 nM and 13.5 nM and 13.3 nM
same,IC90,[5]; [13],48.2 nM and 27.4 nM and 26.7 nM
same,IC50,"[5]; Plasmodium falciparum, NF54, NF54G358S-2 parasites, individual experiments, read-out: IC50 values",21.3 nM
same,IC90,"[5]; Plasmodium falciparum, NF54, NF54G358S-2 parasites, individual experiments, read-out: IC90 values",30.8 nM
same,IC50,"[5]; Plasmodium falciparum, NF54, NF54G358S-2 parasites, mean of the experiments, read-out: IC50 values, MEAN",18 nM
same,IC90,"[5]; Plasmodium falciparum, NF54, NF54G358S-2 parasites, mean of the experiments, read-out: IC90 values, MEAN",33.3 nM
same,FC (IC50),[6]; NF54CTL compared to NF54WT,0.9 fold
same,FC (IC90),[6]; NF54CTL compared to NF54WT,1.2 fold
same,IC50,[6]; [14],20.9 nM and 14.5 nM and 11.8 nM
same,IC90,"[6]; NF54CTL parasites, individual experiments, read-out: IC90 values",37.3 nM and 28.1 nM and 26.3 nM
same,IC50,"[6]; Plasmodium falciparum, NF54, NF54CTL parasites, individual experiments, read-out: IC50 values",21.9 nM
same,IC90,"[6]; Plasmodium falciparum, NF54, NF54CTL parasites, individual experiments, read-out: IC90 values",45.9 nM
same,IC50,"[6]; Plasmodium falciparum, NF54, NF54CTL parasites, mean of the experiments, read-out: IC50 values, MEAN",17.3 nM
same,IC90,"[6]; Plasmodium falciparum, NF54, NF54CTL parasites, mean of the experiments, read-out: IC90 values, MEAN",34.4 nM
same,FC (IC50),[7],0.9 fold
same,FC (IC90),[7],1.1 fold
same,IC50,[7]; [15],22.2 nM and 14.8 nM and 12.9 nM
same,IC90,[7]; [16],43.7 nM and 27.9 nM and 26.4 nM
same,IC50,"[7]; Plasmodium falciparum, NF54, NF54G358S-1 parasites, individual experiments, read-out: IC50 values",20.8 nM
same,IC90,"[7]; Plasmodium falciparum, NF54, NF54G358S-1 parasites, individual experiments, read-out: IC90 values",34.2 nM
same,IC50,"[7]; Plasmodium falciparum, NF54, NF54G358S-1 parasites, mean of the experiments, read-out: IC50 values, MEAN",17.7 nM
same,IC90,"[7]; Plasmodium falciparum, NF54, NF54G358S-1 parasites, mean of the experiments, read-out: IC90 values, MEAN",33 nM
